For 3 molecules, EC50 results are on record in US20250127914A1, “ANTIBODY-CONJUGATED 8-SULFONYL-BENZAZEPINE COMPOUNDS AND THEIR USES” (BOLT BIOTHERAPEUTICS, INC., priority 2022, published 2025).

For one assay, the target named is T1, human TLR8 (Homo sapiens, UniProt Q9NR97).
T1 construct: host or cells: HEK293 NF-kB reporter cells
T1 sequence (Q9NR97 27-1041): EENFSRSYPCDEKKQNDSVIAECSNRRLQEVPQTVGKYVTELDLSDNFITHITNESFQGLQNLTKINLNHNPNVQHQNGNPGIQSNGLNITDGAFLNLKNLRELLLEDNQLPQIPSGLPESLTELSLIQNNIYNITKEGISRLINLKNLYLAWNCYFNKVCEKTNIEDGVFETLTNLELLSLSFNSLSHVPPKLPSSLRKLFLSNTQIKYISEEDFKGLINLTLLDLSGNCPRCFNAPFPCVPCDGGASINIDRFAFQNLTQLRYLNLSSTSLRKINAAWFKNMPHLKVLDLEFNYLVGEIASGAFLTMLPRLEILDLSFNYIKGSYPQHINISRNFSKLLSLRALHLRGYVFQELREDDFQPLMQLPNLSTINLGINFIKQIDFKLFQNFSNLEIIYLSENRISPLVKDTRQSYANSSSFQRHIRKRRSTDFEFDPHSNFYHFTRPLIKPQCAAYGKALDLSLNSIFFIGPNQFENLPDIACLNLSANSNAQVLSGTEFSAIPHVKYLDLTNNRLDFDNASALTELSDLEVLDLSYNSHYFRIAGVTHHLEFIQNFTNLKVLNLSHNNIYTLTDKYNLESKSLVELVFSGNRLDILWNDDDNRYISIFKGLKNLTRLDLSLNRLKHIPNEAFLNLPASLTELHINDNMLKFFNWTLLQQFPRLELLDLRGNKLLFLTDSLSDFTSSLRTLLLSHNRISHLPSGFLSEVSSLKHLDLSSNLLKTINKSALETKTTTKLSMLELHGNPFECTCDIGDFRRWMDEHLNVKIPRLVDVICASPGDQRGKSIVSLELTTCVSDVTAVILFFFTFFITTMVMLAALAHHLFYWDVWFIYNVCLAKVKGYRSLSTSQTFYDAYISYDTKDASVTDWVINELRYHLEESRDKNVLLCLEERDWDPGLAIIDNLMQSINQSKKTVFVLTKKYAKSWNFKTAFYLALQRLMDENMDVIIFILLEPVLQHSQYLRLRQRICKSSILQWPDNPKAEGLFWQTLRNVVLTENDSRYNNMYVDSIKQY
Nature of the assay: HEK Reporter Assay, human TLR8. It is filed as cell-based. The note with it: HEK293 NFKB reporter cells expressing human TLR8; read-out: HEK293 hTLR8 EC50. The protocol: (§1) Exemplary 8-sulfonyl-2-aminobenzazepine compounds (8SO2Bz) of the invention were synthesized, purified, and characterized by mass spectrometry and shown to have the expected mass. Additional experimental procedures are found in the Examples. Activity against HEK293 NFKB reporter cells expressing human TLR7 or human TLR8 was measured according to Example 202.
(§2) HEK293 reporter cells expressing human TLR7 or human TLR8 were purchased from Invivogen and vendor protocols were followed for cellular propagation and experimentation. Briefly, cells were grown to 80-85% confluence at 5% CO2 in DMEM supplemented with 10% FBS, Zeocin, and Blasticidin. Cells were then seeded in 96-well flat plates at 4×10^4 cells/well with substrate containing HEK detection medium and immunostimulatory molecules. Activity was measured using a plate reader at 620-655 nm wavelength.
For orientation: Reporter assays use an easily measured gene product as a stand-in for the process of interest.

A further assay concerns the target T2, human TLR7 (Homo sapiens, UniProt Q9NYK1).
T2 construct: host or cells: HEK293 NF-kB reporter cells
T2 sequence (Q9NYK1 27-1049): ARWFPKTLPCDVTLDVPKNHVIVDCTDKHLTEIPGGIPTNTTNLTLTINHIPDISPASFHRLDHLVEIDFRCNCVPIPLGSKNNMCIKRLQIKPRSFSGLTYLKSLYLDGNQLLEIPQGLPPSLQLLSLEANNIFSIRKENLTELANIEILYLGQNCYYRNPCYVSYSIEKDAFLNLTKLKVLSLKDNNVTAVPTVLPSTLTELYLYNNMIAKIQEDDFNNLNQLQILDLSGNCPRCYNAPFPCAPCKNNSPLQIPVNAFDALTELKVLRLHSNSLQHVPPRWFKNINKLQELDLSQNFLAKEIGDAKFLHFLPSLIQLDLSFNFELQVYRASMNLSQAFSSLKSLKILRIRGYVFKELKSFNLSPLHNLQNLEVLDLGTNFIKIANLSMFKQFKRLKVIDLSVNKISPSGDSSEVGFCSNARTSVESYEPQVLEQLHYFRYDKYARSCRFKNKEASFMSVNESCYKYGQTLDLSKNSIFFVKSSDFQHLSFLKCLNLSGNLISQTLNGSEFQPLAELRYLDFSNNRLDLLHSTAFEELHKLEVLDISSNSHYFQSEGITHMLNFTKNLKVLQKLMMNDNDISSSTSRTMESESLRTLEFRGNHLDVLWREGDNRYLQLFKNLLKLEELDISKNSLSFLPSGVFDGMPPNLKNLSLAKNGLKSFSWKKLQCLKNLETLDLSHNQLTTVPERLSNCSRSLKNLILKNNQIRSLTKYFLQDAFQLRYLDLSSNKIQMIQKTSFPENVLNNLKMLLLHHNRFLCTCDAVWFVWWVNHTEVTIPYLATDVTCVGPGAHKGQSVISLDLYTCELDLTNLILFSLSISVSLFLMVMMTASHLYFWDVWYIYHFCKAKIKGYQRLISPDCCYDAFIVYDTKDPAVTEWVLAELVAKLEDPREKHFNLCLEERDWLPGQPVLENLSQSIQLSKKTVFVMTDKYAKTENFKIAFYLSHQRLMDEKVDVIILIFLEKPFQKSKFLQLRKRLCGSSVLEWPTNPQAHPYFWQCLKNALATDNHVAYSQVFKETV
The experiment in a line: HEK Reporter Assay, human TLR7. Type of assay: cell-based. The note with it: HEK293 NFKB reporter cells expressing human TLR7; read-out: HEK293 hTLR7 EC50. The protocol:
as §1, §2

Molecules are shown by their SMILES.

`CCCN(OCC)C(=O)C1=Cc2ccc(S(=O)(=O)c3ccc(C(=O)OC)cc3)cc2N=C(N)C1`: on human TLR8, the EC50 came to 1060 nM. Take `CCCN(OCCNC(=O)OC(C)(C)C)C(=O)C1=Cc2ccc(S(=O)(=O)N(C)C)cc2N=C(N)C1` [Immunoconjugate 8SO2Bz-2]: the EC50 at human TLR8 was < 2.3 nM; on human TLR7, 395 nM.

On to `CCCN(OCC)C(=O)C1=Cc2ccc(S(=O)(=O)NC)cc2N=C(N)C1` [Immunoconjugate 8SO2Bz-3], for which the EC50 on human TLR8 stood at 202 nM.

The term EC50 denotes the midpoint of the concentration-response curve.
